ChEMBL document CHEMBL3885881, “DrugMatrix”

Organism: Rattus norvegicus
Type: toxicity, organism-based, Sprague-Dawley
Conditions: in vivo, ip, 24 h, route intraperitoneal, time 1 day, vehicle .1 % RSA/SALINE
[1] = 0 mg/kg, vehicle control, tissue Blood, dose level Control
[2] = 0 mg/kg, vehicle control, tissue Plasma, dose level Control
[3] = 0.01 mg/kg, tissue Blood, dose level High
[4] = 0.01 mg/kg, tissue Plasma, dose level High

Description: DrugMatrix - Regimen: Single

With INTERLEUKIN 1 BETA, RAT the “ABSOLUTE EOSINOPHIL” value [1] was 109.33 CELLS/uL, the “ABSOLUTE LYMPHOCYTE” value [1] was 13180.67 CELLS/uL and the “ABSOLUTE MONOCYTE” value [1] was 354 CELLS/uL. The “ABSOLUTE SEGMENTED NEUTROPHIL” value [1] was 1756 CELLS/uL, the BASOPHIL [1] was 0% and the EOSINOPHIL [1] was 0.67%. For the same sequence, the “ERYTHROCYTE COUNT” value [1] was 5.38 x10E6/uL, the HEMOGLOBIN [1] was 12.57 G/DL and the “LEUKOCYTE COUNT” value [1] was 15.4 x10E3/uL. For the same sequence, the LYMPHOCYTE [1] was 85%, the “MEAN CORPUSCULAR HEMOGLOBIN” value [1] was 23.37 pg and the “MEAN CORPUSCULAR HEMOGLOBIN CONCENTRATION” value [1] was 38.3 G/DL. The NEUTROPHIL [1] was 12%, the “NUCLEATED RED BLOOD CELLS” value [1] was 0 /100WBC and the “PLATELET COUNT” value [1] was 832.33 x10E3/uL. For the same sequence, the “ALANINE AMINOTRANSFERASE” value [2] was 37.33 u/L, the ALBUMIN [2] was 4 G/DL and the “ALKALINE PHOSPHATASE” value [2] was 344.67 u/L. The “ASPARTATE AMINOTRANSFERASE” value [2] was 69.33 u/L, the “BLOOD UREA NITROGEN” value [2] was 13.67 mg/dL and the “CARBON DIOXIDE” value [2] was 28.33 mmol/L. For the same sequence, the CHLORIDE [2] was 99.67 MEQ/L, the CHOLESTEROL [2] was 73.67 mg/dL and the “CREATINE PHOSPHOKINASE” value [2] was 270 u/L. The CREATININE [2] was 0.19 mg/dL, the GLUCOSE [2] was 176.33 mg/dL and the “LACTATE DEHYDROGENASE” value [2] was 160 u/L. For the same sequence, the PHOSPHORUS [2] was 13.47 mg/dL, the POTASSIUM [2] was 6.77 MEQ/L and the “TOTAL BILIRUBIN” value [2] was 0.13 mg/dL. The “TOTAL PROTEIN” value [2] was 6.07 G/DL, the “URIC ACID” value [2] was 1.87 mg/dL and the “ABSOLUTE EOSINOPHIL” value [3] was 0 CELLS/uL. The “ABSOLUTE LYMPHOCYTE” value [3] was 13348 CELLS/uL, the “ABSOLUTE MONOCYTE” value [3] was 227.67 CELLS/uL and the “ABSOLUTE SEGMENTED NEUTROPHIL” value [3] was 3524.33 CELLS/uL. The BASOPHIL [3] was 0%, the EOSINOPHIL [3] was 0% and the “ERYTHROCYTE COUNT” value [3] was 5.11 x10E6/uL. For the same sequence, the HEMATOCRIT [3] was 31.33%, the HEMOGLOBIN [3] was 12.13 G/DL and the “LEUKOCYTE COUNT” value [3] was 17.1 x10E3/uL. The LYMPHOCYTE [3] was 78%, the “MEAN CORPUSCULAR HEMOGLOBIN CONCENTRATION” value [3] was 38.73 G/DL and the “MEAN CORPUSCULAR VOLUME” value [3] was 61.37 fL. For the same sequence, the NEUTROPHIL [3] was 20.67%, the “NUCLEATED RED BLOOD CELLS” value [3] was 0.33 /100WBC and the “PLATELET COUNT” value [3] was 933.33 x10E3/uL. For the same sequence, the “ALANINE AMINOTRANSFERASE” value [4] was 30.33 u/L, the “ALKALINE PHOSPHATASE” value [4] was 386.33 u/L and the “ASPARTATE AMINOTRANSFERASE” value [4] was 62.67 u/L. The “CARBON DIOXIDE” value [4] was 25.33 mmol/L, the CHOLESTEROL [4] was 66.67 mg/dL and the “CREATINE PHOSPHOKINASE” value [4] was 237 u/L. The CREATININE [4] was 0.18 mg/dL, the GLUCOSE [4] was 176.33 mg/dL and the “LACTATE DEHYDROGENASE” value [4] was 101 u/L. The PHOSPHORUS [4] was 12.13 mg/dL, the POTASSIUM [4] was 6.6 MEQ/L and the “TOTAL BILIRUBIN” value [4] was 0.13 mg/dL. For the same sequence, the “TOTAL PROTEIN” value [4] was 6.07 G/DL.
